According to article PMC9977398, “Next-generation membrane-active glycopeptide antibiotics that also inhibit bacterial cell division” (Chemical Science, 2023):

Key:
wild-type E. coli = assay: Light microscopy of wild-type E. coli (lysis); format: cell-based; settings: VanQAmC10 25 μM, vancomycin 34 μM (Fig. 5A)
Procedure: Over 240 minutes, E. coli treated with VanQAmC10 (at 25 μM), gradually grow bulky before finally lysing (ESI Video ^†). It punctured the cell, causing the cytoplasm to leak out as extrusions on the surface of the bacteria after which the cells flattened and disintegrated.
Fig. 5 Examination of E. coli cells treated with vancomycin, cephalexin and VanQAmC10 to study the effect on bacterial membrane integrity and cell division. (A) Light microscopy of wild-type E. coli upon treatment with vancomycin (34 μM), and VanQAmC10 (25 μM); (B) light and fluorescence microscopy in GFP-FtsZ expressing E. coli to assess morphological changes and localization of FtsZ post-treatment with VanQAmC10 (15 μM) for 40 min; (C) delocalization of GFP-FtsI in GFP-FtsI expressing E. coli through fluorescence microscopy and morphological changes through light microscopy upon treatment with vancomycin (34 μM), cephalexin (22 μM) and VanQAmC10 (10 μM); (D) light microscopy to assess morphological changes in E. coli MG1655 ΔamiAC mutant, when untreated and treated with vancomycin (3 μM) and VanQAmC10 (2 μM). Black arrows indicate morphological aberrations.

human erythrocytes = tested on: human erythrocytes; parameters: method as in PMID 32195571; settings: previously reported; cited from earlier work
[1] = tested on: B. subtilis 1981 GFP-MinD; assay: GFP-MinD localization; format: cell-based; settings: treatment at the PEC, 15 min
Description: MinD is a peripheral membrane protein that localizes at the cell poles and is part of the cell division regulation machinery. It has been reported that treatment with membrane-depolarizing agents like valinomycin results in the delocalization of the protein which appears in irregularly distributed spots throughout the cell. Since the compounds depolarise the bacterial membrane, their effect on the localization of the GFP-tagged MinD protein of B. subtilis was investigated. […]
resuspended in prewarmed BMM media. 1:1 BAC light dye was then added to the bacterial suspension and incubated for 5 minutes. The fluorescence in the GFP and Texas red channels was then observed under the microscope. The experiments were performed three times independently and the images are representative of results from three independent experiments.
B. subtilis 1981 GFP-MinD was cultured overnight in BMM.8 Cells were then inoculated in xylose containing BMM instead of glucose to an OD500 of 0.1 to induce expression of the GFP-MinD fusion protein. […]
About 6 μl of sample was immobilized on 1% agarose pad . DIC and fluorescence images were obtained at different time intervals using Nikon Eclipse Ti Microscope equipped with Nikon DS-U3 camera through Plan Apo 100×/1.40 oil objective. […]

MRSA = assay: Antagonization assay with Ac2KAA or lipoteichoic acid; format: cell-based, S. aureus; settings: for change in MIC in presence of lipoteichoic acid: 100 μg/mL lipoteichoic acid as competing ligand
Procedure: Ac2KAA can act as a competitive ligand to the target of glycopeptide antibiotics and therefore antagonize antibacterial activity. In the presence of 500 μM of Ac2KAA, the activity of VanQAmC10 (8) was reduced by 2-fold. However, the MIC of vancomycin increased from 0.6 μM to >30 μM ([…] increase in MIC) in presence of the same amount of Ac2KAA. The 2-fold reduction in the activity of VanQAmC10 (8) accounts for the loss of activity due to D-Ala–D-Ala binding. This implied that it acted through additional mechanisms that are independent of Ala-D-Ala binding. The presence of the positive charge in VanQAmC10 (8) could result in interactions with the negatively charged components of the bacterial cell wall like teichoic acid. C-terminal trimethyl ammonium modified vancomycin derivative has been reported to bind to teichoic acid.[32] […]
Antagonization of antibacterial activity of AAV-qC10 was determined by addition of 500 μM
N,N՛-diacetyl–L-Lys–D-Ala–D-Ala or 100 μg/mL of lipoteichoic acid to serial dilutions of the […]

VRSA = assay: Time-kill kinetics against VRSA; format: cell-based, S. aureus

| SMILES | effect on E. coli cells (microscopy) (wild-type E. coli) | HC50 (human erythrocytes) [µM] | localization of GFP-MinD [1] | change in MIC in presence of lipoteichoic acid (MRSA) | fold reduction of activity in presence of Ac2KAA (MRSA; 500 μM Ac2KAA, MRSA) [fold] | increase in bacterial titer between 6 h and 24 h (VRSA; VRSA, 2×MIC, after initial reduction) [log CFU mL^−1] | time to complete eradication (VRSA; VRSA, 6×MIC) [h] | reduction of bacterial titer (VRSA; VRSA, at MIC, 24 h) [log CFU mL^−1] | fold increase in MIC in presence of Ac2KAA (MRSA; 500 μM Ac2KAA, MRSA) [fold] | MIC (MRSA; Staphylococcus aureus, 500 μM Ac2KAA, MRSA, read-out: MIC in presence of Ac2KAA) [µM] | effect on growth of VRSA (VRSA; 20 μM (sub-MIC)) |
| --- | --- | --- | --- | --- | --- | --- | --- | --- | --- | --- | --- |
| CCCCCCCCCCNC(=O)C[N+](C)(C)CCCNC(=O)C1NC(=O)C2NC(=O)C(NC(=O)C3NC(=O)C(CC(N)=O)NC(=O)C(NC(=O)C(CC(C)C)NC)C(O)c4ccc(c(Cl)c4)Oc4cc3cc(c4OC3OC(CO)C(O)C(O)C3OC3CC(C)(N)C(O)C(C)O3)Oc3ccc(cc3Cl)C2O)c2ccc(O)c(c2)-c2c(O)cc(O)cc21 (centres unmarked) [VanQAmC10 (8)] | completely lysed the cells | >500 | irregular distribution of GFP-labelled MinD across the cells | no change in the MIC | 2 | 1 | 24 | 1.9 | – | – | – |
| CNC(CC(C)C)C(=O)NC1C(=O)NC(CC(N)=O)C(=O)NC2C(=O)NC3C(=O)NC(C(=O)NC(C(=O)NCCC[N+](C)(C)Cc4ccc(-c5ccccc5)cc4)c4cc(O)cc(O)c4-c4cc3ccc4O)C(O)c3ccc(c(Cl)c3)Oc3cc2cc(c3OC2OC(CO)C(O)C(O)C2OC2CC(C)(N)C(O)C(C)O2)Oc2ccc(cc2Cl)C1O (centres unmarked) [VanQbiph (4)] | – | – | irregular distribution of GFP-labelled MinD across the cells | – | – | – | – | – | – | – | – |
| CN[C@H](CC(C)C)C(=O)N[C@H]1C(=O)N[C@@H](CC(N)=O)C(=O)N[C@H]2C(=O)N[C@H]3C(=O)N[C@H](C(=O)N[C@H](C(=O)O)c4cc(O)cc(O)c4-c4cc3ccc4O)[C@H](O)c3ccc(c(Cl)c3)Oc3cc2cc(c3O[C@@H]2O[C@H](CO)[C@@H](O)[C@H](O)[C@H]2O[C@H]2C[C@](C)(N)[C@H](O)[C@H](C)O2)Oc2ccc(cc2Cl)[C@H]1O [Vancomycin, reference compound] | did not affect the cells | – | – | no change in the MIC | – | – | – | – | > 40 | > 30 | initial growth inhibitory effect, followed by resumption of bacterial growth |
